Literature values, collected in patent US20190352602A1, “Methods and Compositions for Producing Germ Cells from Bone Marrow Derived Germline Stem Cells” (The General Hospital Corporation, priority 2004, published 2019).

Tested on: irradiated testicular tissue
Conditions: irradiated testicular tissue treated with S1P vs untreated tissues

Compound: CCCCCCCCCCCCC/C=C/[C@@H](O)[C@@H](N)COP(=O)(O)O [S1P, Sphingosine-1-phosphate]
- numbers of primary spermatocytes and spermatogonia: higher than untreated tissues
